The subject of series [1] is HO15.19 cells reconstituted with exogenous C-MYC. The series is described as follows: Inhibition of C-MYC-dependent proliferation, cell cycle distribution by FACS. Type of series: cell-based, rat. Conditions: 3 μM. How it is done:
In parallel, […] was evaluated for the ability to inhibit C-MYC-dependent proliferation in HO15.19 cells reconstituted with exogenous C-MYC. HO15.19 cells are the only cell line that is capable of continuous proliferation in the absence of any MYC protein expression, a feature that makes this line a reference in the field.

The subject of a further series is SK-Mel-103 xenografts. Kind of series: SK-Mel-103 xenograft efficacy study CBL2.5-01-Ms-2, N77A7 in Captisol. Type of series: in vivo, athymic nude mice. How it is done:
FIG. 9 illustrates the effect of N77A7 on survival of SK-Mel-103 tumor-bearing mice. […] When at least one tumor on the majority of mice reached ˜50 mm^3, mice were randomly divided into treatment groups. Starting on Day 1 of treatment, mice were treated daily by ip injection of either 50 mg/kg N77A7 or the equivalent amount of Captisol vehicle. Mice were followed until tumors reached 1000 mm^3 or tumors ulcerated or 28 days of treatment, whichever came first. The proportion of surviving mice is depicted in the graph. The survival of N77A7 and vehicle control-treated mice was compared using the Log Rank test. p-value<0.05 indicates significance.
FIG. 10 illustrates the effect of Captisol and N77A7 on mouse weight. (A) Mean change in body weight as determined by calculating the % starting weight, which is the weight of a mouse on Day X divided by the weight of the same mouse on Day 1 and multiplied by 100. […] (C)-(D) Changes in mouse weight for individual mice in each treatment group calculated as described in (A).
FIG. 11 illustrates the effect of 50 mg/kg N77A7 on tumor growth. (A) Athymic nude mice were inoculated with 1×10^6 SK-Mel-103 tumor cells in each rear flank. When at least one tumor on a mouse was ˜50 mg for the majority of mice, treatment commenced. Mice were treated once daily ip with 50 mg/kg N77A7 or an equivalent amount of vehicle control (i.e., Captisol). Tumors were measured by digital caliper on Day 1 and then twice per week thereafter. Tumor measurements were made blind to the treatment each mouse received. Data is presented as the mean tumor volume on each measurement day. Comparison of tumor volume between treatment groups was made using unpaired t-tests. P value <0.05 is significant. (B) Same as (A) except data is presented as mean fold tumor growth, which was calculated by dividing the mean tumor volume on Day X by that of the same tumor on Day 1.
FIG. 12 illustrates the effect N77A7 on tumor doubling time and the time to reach 1000 mm^3 Growth curves for each tumor within each treatment group were plotted (tumor volume vs days from start of treatment). Regression analysis using the exponential trendline in Excel was used to generate an equation for each curve. From the equation, the tumor doubling time (A) and the time to reach the experimental endpoint of 1000 mm^3 was calculated. Error bars represent the standard error of the mean and p values were obtained using unpaired, two-sided t-tests.
Animal study protocol CBL2.5-01-Ms-2. N77A7 formulated in Captisol was prepared. Both N77A7 and Captisol vehicle were prepared weekly according to the needs of the study. SK-Mel-103 melanoma cells (1×10^6 cells/inoculation were inoculated into each rear flank of 20 athymic nude (7.5 week old males) on Sep. 11, 2009. Prior to commencement of treatment, mice were randomly assigned to treatment groups with 2 of 4 mice per cage assigned to the Captisol vehicle control group and the other 2 mice to the 50 mg/kg N77A7 group. When at least one tumor per mouse for the majority of mice reached ˜50 mm^3 in tumor volume, treatment commenced. The first day of treatment (Day 1) was Sep. 21, 2009. Administration of N77A7 and vehicle control was performed daily by ip administration of 2.5 mg/ml solution of N77A7 or equivalent amount of vehicle control at 500 μl/25 g mouse body weight. Mouse body weight measurements were performed prior to commencement of treatment and Mondays-Wednesdays-Fridays thereafter. Administration volumes were adjusted during the course of the study based on the latest weight measurements. Treatments were administered. Tumor measurements were performed without prior knowledge of which treatment group each mouse belonged (i.e., blinded to treatment groups). When at least one tumor of a mouse reached 1000 mm^3 or tumor ulceration was evident, mice were euthanized according to the approved IACUC protocol (CBL 1096M). The experiment was completed on Day 18 (Oct. 8, 2009). […]

For a further series, the system named is HO-null cells. The series is described as follows: Secondary filter for Myc specificity: cell growth inhibition, methylene blue staining. The following applies: Rattus norvegicus, 72 h, read-out: ID50 HO-null. The series is classed as cell-based. How it is done:
FIG. 4 illustrates the myc specificity of tested compounds. Rat1a cells expressing c-myc, L-myc or N-myc or lacking any Myc (null) were treated for 72 h with a range of hit compound concentrations. The cells were then fixed and stained with methylene blue and the percentage of cells in the presence of compound compared to DMSO only control was calculated.
Validated hits were divided into classes when two or more compounds shared significant structural similarity. The ID50 for N-myc transactivation (the inhibitory dose resulting in 50% decrease in luciferase activity) for each hit was calculated from the dose-response N-myc responsive reporter assay. Compounds within each class were ranked by their ID50 for N-myc transactivation and the best compounds within each class were chosen for further studies. In addition, the best of the structurally unique compounds were also analyzed. A total of 46 hits were passed through a secondary filter designed to determine the specificity of the hits for Myc proteins. For this filter, we used a panel of cell lines derived from Rat1a cells (kindly provided by Michael Cole, Dartmouth University): HO-null-c-Myc deficient cells due to homologous recombination that express neither N-myc nor L-myc HO-c-Myc, HO-L-myc and HO-N-myc derived by retroviral transduction of the corresponding Myc genes into HO-null cells. Since each cell line expresses only a single Myc or no Myc family members, we could identify compounds that act through Myc family members as well as which Myc family members. […] The 18 Myc-specific compounds identified during the screening and filtering process are presented in Table 1 and represent distinct classes of molecules, including pyrazoles (e.g., N147A7, N47E10, N147G5), tetrazoles (e.g., N77A7) and 3-bromophenol (e.g., N4G6).

Series [2] deals with Myc+ fibroblasts (HO15.19 Myc-null cells with C-MYC re-expression). The series is described as follows: Stable-isotope tracing, 13C labeling and uptake/secretion of metabolites. Conditions: 13C-glucose, 24 hrs, Myc+ cells treated. The series is classed as cell-based, rat. How it is done:
Experiments were perform and data were analyzed as described in FIG. 14. Cellular measurements are mean±SD of 3 samples.

Setting [3] is: 50 mg/kg daily ip in Captisol, necropsy of several mice.

One compound from patent publication US9387213B2, “Small molecules inhibiting oncoprotein Myc” (Health Research, Inc., priority 2012, dated 2016) can be followed below.

With `CCN(CC)c1ccc(/C=N/NC(=O)Cn2nnc(-c3ccccc3)n2)c(O)c1` [Compound N77A7], the “HO15.19-C-MYC G2” value in series [1] (percent of cells in G2 phase) came out at 15.39%. Further, the “HO15.19-C-MYC S” value in series [1] (percent of cells in S phase) was determined as 34.88%. In the series with SK-Mel-103 xenografts (50 mg/kg daily ip in Captisol, after 14 days of treatment, all Captisol-treated mice euthanized, logrank P=0.0083), the “treated mice remaining in the study (survival)” value is given as 5 of the 10. For the same compound, in the series with SK-Mel-103 xenografts (setting [3]), the “compound precipitation at necropsy” value is on record as “no signs of compound precipitation within the abdominal cavity” and the peritonitis at necropsy entry is “no signs of peritonitis”. Further, in the series on SK-Mel-103 xenografts (50 mg/kg daily ip in Captisol, versus Captisol vehicle), the “maximum tumor growth inhibition” value is given as roughly 45%. Moreover, the “effect on mouse weight” value in the series on SK-Mel-103 xenografts (50 mg/kg daily ip, 14 consecutive days of treatment) is recorded as “did not cause any weight loss”. In addition, the “growth delay in reaching the study endpoint (1000 mm3)” value in the series on SK-Mel-103 xenografts (50 mg/kg daily ip, from regression of growth curves, p=0.0004) is 5 days. Also, the “increase of doubling time for tumor growth” value with SK-Mel-103 xenografts (50 mg/kg daily ip, from regression of growth curves, p=0.0157) worked out at 1 days. The “starting tumors left in the study by Day 14” value in the series with SK-Mel-103 xenografts (50 mg/kg daily ip, control <50% (8/18)) is given as 80%. Also, the IC50 with HO-null cells was 3.64 µM. In series [2], the metabolic phenotype result was “metabolic phenotype similar to Myc-null cells”.
